Laboratory results: ChEMBL document CHEMBL4765305, “Elephantopinolide A-P, germacrane-type sesquiterpene lactones from Elephantopus scaber induce apoptosis, autophagy and G2/M phase arrest in hepatocellular carcinoma cells” (Eur J Med Chem, 2020)

Key:
Hep 3B2 = assay: Anti-hepatoma activity against human Hep3B cells assessed as cell growth inhibition by MTT assay; assay type: functional, cell-based
HepG2 = assay: Anti-hepatoma activity against human HepG2 cells assessed as cell growth inhibition by MTT assay; assay type: functional, cell-based

IC50 (HepG2) [µM] | Structure (SMILES) | IC50 (Hep 3B2) [µM]
> 20 | C=C(C(=O)OC)[C@H]1/C=C/[C@](C)(O)C[C@@H]2C=C(C[C@@H]1OC(=O)/C(C)=C\C)C(=O)O2 | > 20
10.6 | C=C1C(=O)O[C@@H]2/C=C(\C)C[C@H]3C=C(C[C@H](OC(=O)C(C)C)[C@@H]12)C(=O)O3 | 8.63
5.99 | C=C1C(=O)O[C@H]2[C@H]1[C@@H](OC(=O)/C(C)=C\C)CC1=C[C@@H](C[C@@]3(C)O[C@@H]23)OC1=O | 3.74
